We go through 16 compounds from patent US12115157B2, “3-phenoxyazetidin-1-yl-heteroaryl pyrrolidine derivatives and the use thereof as medicament” (Boehringer Ingelheim International GmbH, priority 2021, dated 2024).

For one series, the system named is human hepatocytes. The series is described as follows: Metabolic stability in human hepatocytes. Particulars: human hepatocyte suspension, 1 μM; predicted hepatic clearance as percentage of hepatic blood flow. Type of series: in vitro ADME. The protocol: The metabolic degradation of a test compound was assayed in a human hepatocyte suspension. After recovery from cryopreservation, human hepatocytes were diluted in Dulbecco's modified eagle medium (supplemented with 3.5 μg glucagon/500 mL, 2.5 mg insulin/500 mL, 3.75 mg hydrocortisone/500 mL, 5% human serum) to obtain a final cell density of 1.0×10^6 cells/mL or 4.0×10^6 cells/mL, depending on the metabolic turnover rate of the test compound.
Following a 30 minutes preincubation in a cell culture incubator (37° C., 10% CO2), test compound solution was spiked into the hepatocyte suspension, resulting in a final test compound concentration of 1 μM and a final DMSO concentration of 0.05% (v/v).
The cell suspension was incubated at 37° C. (cell culture incubator, horizontal shaker) and samples were removed from the incubation after 0, 0.5, 1, 2, 4 and 6 hours. Samples were quenched with acetonitrile (containing internal standard) and pelleted by centrifugation. The supernatant was transferred to a 96-deepwell plate, and prepared for analysis of decline of parent compound by HPLC-MS/MS.
The percentage of remaining test compound was calculated using the peak area ratio (test compound/internal standard) of each incubation time point relative to the time point 0 peak area ratio. The log-transformed data were plotted versus incubation time, and the absolute value of the slope obtained by linear regression analysis was used to estimate in vitro half-life (T1/2).
In vitro intrinsic clearance (CLint) was calculated from in vitro T1/2 and scaled to whole liver using a hepatocellularity of 120×10^6 cells/g liver, a human liver per body weight of 25.7 g liver/kg as well as in vitro incubation parameters, applying the following equation: CL_[…]_IN VIVO[mL/min/kg]=(CL_[…][μL/min/10^6 cells]×hepatocellularity[10^6 cells/g liver]×liver factor[g/kg body weight])/1000
Hepatic in vivo blood clearance (CL) was predicted according to the well-stirred liver model considering an average liver blood flow (QH) of 20.7 mL/min/kg: CL[mL/min/kg]=CL_[…]_IN VIVO[mL/min/kg]×hepatic blood flow[mL/min/kg]/(CL_[…]_IN VIVO[mL/min/kg]+hepatic blood flow[mL/min/kg])
Results were expressed as percentage of hepatic blood flow: QH[%]=CL[mL/min/kg]/hepatic blood flow[mL/min/kg])

A further series deals with human GPR52 (Homo sapiens (Human), UniProt Q9Y2T5). The series is described as follows: HTRF assay for direct cAMP measurement. The note with it: CHO-K1 cells stably expressing recombinant human GPR52, mean EC50. Type of series: cell-based. The protocol:
HTRF cAMP assays were performed using commercially available assay kits according to the manufacturer's instructions (cAMP Dynamic 2 Assay Kit; #62AM4PEJ, Cisbio Bioassays, Bedford, MA). An aliquot of CHO-K1 cells stably expressing recombinant human GPR52 was thawed and resuspended in cell buffer (1×PBS (w/o Ca^2+/Mg^2+)) at a density of 4×10^5 cells per mL. Test compounds were solubilized in DMSO to 10 mM stock solutions and serially diluted in DMSO using 6-fold dilutions to generate 8-point dose response curves. These serially diluted samples were then diluted 1:50 in compound dilution buffer (1×PBS (w/o Ca^2+/Mg^2+) containing 0.5 mM IBMX, 0.1% BSA) to achieve a 4× stock. The diluted compounds were transferred (5 μL per well) in duplicate to the 384-well assay plate (Optiplate #6007290, PerkinElmer, Waltham, MA). Both a positive (reference compound) and negative (non-stimulated vehicle) control was included in each assay run in column 23. The cell suspension was subsequently dispensed into the 384-well assay plates at 15 μL per well (6000 cells) such that the compound was diluted to 1×. […] After a one-hour incubation at room temperature, 10 μL of cAMP D2 reagent followed by 10 μL of cryptate reagent (provided in the Cisbio kit) was added to each well. Plates were then incubated at room temperature for one hour prior to reading. Time-resolved fluorescence measurements were collected on an EnVision® HTRF plate reader (PerkinElmer, Waltham, MA). Counts from the plate reader were fit to the cAMP standard curve included on each plate to determine the amount of cAMP in each test well. The % control was calculated based on the […]. Dose-response curves were generated from the cAMP data and analyzed using a nonlinear least squares curve-fitting program to obtain EC50 values.
A general note: In TR-FRET formats the signal depends on donor and acceptor labels being close together.

The subject of the next series is human plasma proteins. The series is described as follows: Human plasma protein binding assay (equilibrium dialysis). It is filed as in vitro ADME. The note with it: 1 μM, 2 hours, 37° C. The protocol:
Equilibrium dialysis (ED) technique was used to determine the approximate in vitro fractional binding of test compounds to plasma proteins. Dianorm Teflon dialysis cells (micro 0.2) were used. Each dialysis cell consists of a donor and an acceptor chamber, separated by an ultrathin semipermeable membrane with a 5 kDa molecular weight cut-off. Stock solutions for each test compound were prepared in DMSO at 1 mM and serially diluted to obtain a final test concentration of 1 μM. The subsequent dialysis solutions were prepared in plasma (supplemented with NaEDTA as anticoagulant), and aliquots of 200 μL test compound dialysis solution in plasma were dispensed into the donor (plasma) chambers. Aliquots of 200 μL dialysis buffer (100 mM potassium phosphate, pH 7.4) were dispensed into the buffer (acceptor) chamber. Incubation was carried out for 2 hours under rotation at 37° C. for establishing equilibrium.
At the end of the dialysis period, aliquots obtained from donor and acceptor chambers, respectively, were transferred into reaction tubes, spiked with Internal Standard solution and processed for HPLC-MS/MS analysis. Analyte concentrations were quantified in aliquots of samples by HPLC-MS/MS against external calibration curves.
Percent bound was calculated using the formula: % bound=(plasma concentration−buffer concentration/plasma concentration)×100
On the technique in general: Equilibrium dialysis compares concentrations on both sides of a semipermeable membrane.

The target in the next series is hERG channel (Homo sapiens (Human), UniProt Q12809). The series is described as follows: hERG channel assay (whole-cell patch clamp). Particulars: HEK293 cells stably transfected with hERG cDNA. It is filed as cell-based. The source says: hERG Channel inhibition of compounds of the present invention was investigated as follows:
HEK (human embryonic kidney) 293 cells were stably transfected with hERG cDNA. Cells determined for use in patch clamp experiments were cultivated without antibiotic.
Cells were superfused with a bath solution containing (mM): NaCl (137), KCl (4.0), MgCl2 (1.0), CaCl2(1.8), Glucose (10), HEPES (10), pH 7.4 with NaOH. Patch pipettes were made from borosilicate glass tubing using a pipette and filled with pipette solution containing (mM): K-aspartate (130), MgCl2(5.0), EGTA (5.0), K2ATP (4.0), HEPES (10.0), pH 7.2 with KOH. Resistance of the microelectrodes was typically in the range between 2 MΩ and 5 MΩ.
Membrane currents were recorded using an EPC-10 patch clamp amplifier (HEKA Electronics, Lambrecht, FRG) and PatchMaster software (HEKA). hERG-mediated membrane currents were recorded at typically 28° C., using the whole-cell configuration of the patch-clamp technique. Transfected HEK293 cells were clamped at a holding potential of −60 mV and hERG-mediated inactivating tail currents were elicited using a pulse pattern with fixed amplitudes (activation/inactivation: 40 mV for 2000 ms; recovery: 120 mV for 2 ms; ramp to 40 mV in 2 ms; inactivating tail current: 40 mV for 50 ms) repeated at 15 s intervals. During each inter-pulse interval 4 pulses scaled down by a factor of 0.2 were recorded for a P/n leak subtraction procedure. Rs compensation was employed up to a level that safely allows recording devoid of ringing. The remaining uncompensated Rs was recorded as well as actual temperature and holding current.
The concentrations of the test item were applied sequentially on each of the different cells investigated. A steady state level of baseline current was measured for at least 5 sweeps prior to the application of the first test article concentration. The test item was dissolved in DMSO to yield a stock solution of 1000-fold the highest final concentration. This stock was diluted further in DMSO to stock solutions of 1000-fold the remaining final concentrations. Final dilutions in extracellular buffer were prepared freshly from these stocks by a 1:1000 dilution step each before starting the experiments.
Peak current amplitudes were measured 3 ms after the ramp to +40 mV. For baseline and each concentration, the peak currents of the three last sweeps before application of the next concentration were averaged. Residual currents (I/I0) were calculated for each cell as the fraction of actual average peak current and average baseline peak current. Current inhibition was expressed as […]. Current inhibition for all cells was reported as mean ±SD. If possible, from mean current inhibition data the IC50 was estimated based on the Hill equation using a least squares procedure.

human GPR52, sequence (Q9Y2T5 whole entry): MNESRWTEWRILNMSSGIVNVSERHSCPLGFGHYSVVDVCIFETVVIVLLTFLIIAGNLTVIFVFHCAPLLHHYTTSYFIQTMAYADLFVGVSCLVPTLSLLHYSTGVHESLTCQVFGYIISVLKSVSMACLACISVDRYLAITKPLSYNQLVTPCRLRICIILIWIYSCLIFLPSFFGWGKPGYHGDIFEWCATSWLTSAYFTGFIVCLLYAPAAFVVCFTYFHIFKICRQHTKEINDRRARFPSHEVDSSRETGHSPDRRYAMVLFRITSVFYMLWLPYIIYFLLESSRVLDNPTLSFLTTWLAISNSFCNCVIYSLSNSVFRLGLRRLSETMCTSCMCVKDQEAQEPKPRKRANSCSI
hERG channel, sequence (Q12809 whole entry): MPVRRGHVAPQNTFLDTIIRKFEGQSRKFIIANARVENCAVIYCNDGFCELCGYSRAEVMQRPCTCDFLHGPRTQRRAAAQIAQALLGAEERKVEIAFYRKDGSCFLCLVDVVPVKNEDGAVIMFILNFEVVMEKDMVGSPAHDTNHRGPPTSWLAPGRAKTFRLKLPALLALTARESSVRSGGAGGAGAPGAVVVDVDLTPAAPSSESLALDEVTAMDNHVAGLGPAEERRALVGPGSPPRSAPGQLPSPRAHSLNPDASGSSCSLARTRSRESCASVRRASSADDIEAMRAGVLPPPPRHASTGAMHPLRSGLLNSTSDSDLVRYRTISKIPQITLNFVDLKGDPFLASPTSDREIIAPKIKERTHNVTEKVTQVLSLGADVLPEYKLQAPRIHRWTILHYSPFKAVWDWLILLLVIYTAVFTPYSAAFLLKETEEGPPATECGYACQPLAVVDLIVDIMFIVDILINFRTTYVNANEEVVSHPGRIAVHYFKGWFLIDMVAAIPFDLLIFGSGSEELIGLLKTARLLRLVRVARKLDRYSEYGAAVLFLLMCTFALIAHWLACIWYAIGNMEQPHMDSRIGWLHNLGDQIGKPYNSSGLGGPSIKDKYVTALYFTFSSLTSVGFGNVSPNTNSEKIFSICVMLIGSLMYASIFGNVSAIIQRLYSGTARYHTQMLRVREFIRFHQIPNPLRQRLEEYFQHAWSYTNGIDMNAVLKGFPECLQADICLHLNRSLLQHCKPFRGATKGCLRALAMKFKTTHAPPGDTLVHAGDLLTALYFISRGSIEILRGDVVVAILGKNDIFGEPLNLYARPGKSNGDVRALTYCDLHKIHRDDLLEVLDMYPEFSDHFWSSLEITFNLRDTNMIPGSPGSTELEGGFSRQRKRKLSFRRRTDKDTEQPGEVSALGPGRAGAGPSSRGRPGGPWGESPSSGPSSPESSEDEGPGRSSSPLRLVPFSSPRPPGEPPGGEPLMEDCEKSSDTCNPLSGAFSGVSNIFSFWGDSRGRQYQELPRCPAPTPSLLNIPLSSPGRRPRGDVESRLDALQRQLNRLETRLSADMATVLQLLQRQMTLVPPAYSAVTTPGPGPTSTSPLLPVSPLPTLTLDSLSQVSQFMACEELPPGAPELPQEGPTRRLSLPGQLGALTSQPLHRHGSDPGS

Broadly, the EC50 is the concentration giving half of the maximal effect. The term IC50 denotes the concentration that gives 50% inhibition. Read a low IC50 as greater potency in that assay. Consider `CC(=O)N1CC(NC(=O)c2nccnc2N2CC(Oc3cc(F)cc(C(F)F)c3)C2)C(F)(F)C1` (stereo not shown) [Example 6], for which the “Human HepStab” value in the series with human hepatocytes is 4.8 % QH. Besides, the EC50 on human GPR52 came out at 54 nM. The “Hu PPB” value in the series with human plasma proteins is 87.8 % bound. Also, at hERG channel, the IC50 is > 10000 nM.

On to `CC(=O)N1CC(NC(=O)c2nccnc2N2CC(Oc3cc(F)cc(Cl)c3)C2)C(F)(F)C1` (racemic) [Example 5], for which, in the series with human hepatocytes, the “Human HepStab” value is given as 17.0 % QH. At human GPR52, the EC50 came to 27 nM. The “Hu PPB” value in the series with human plasma proteins was found to be 93.2 % bound. In addition, the IC50 against hERG channel was > 10000 nM.

For `CC(=O)N1CC(F)C(NC(=O)c2nsnc2N2CC(Oc3ccc(F)c(F)c3)C2)C1` (stereo not shown) [Example 14b], in the series with human hepatocytes, the “Human HepStab” value is <4.1 % QH.

`CC(=O)N1CC(NC(=O)c2nccnc2N2CC(Oc3ccc(F)c(Cl)c3)C2)C(F)(F)C1` (racemic) [Example 1]: the “Human HepStab” value with human hepatocytes is given as 11.1 % QH. For the same compound, at human GPR52, the EC50 stood at 15 nM. The “Hu PPB” value in the series with human plasma proteins is 92.6 % bound. Further, the IC50 at hERG channel is > 10000 nM.

For `CC(=O)N1CC(NC(=O)c2nccnc2N2CC(Oc3cc(F)cc(OC(F)F)c3)C2)C(F)(F)C1` (racemic) [Example 7], the “Human HepStab” value in the series with human hepatocytes is on record as 15.4 % QH. In addition, the EC50 on human GPR52 worked out at 102 nM.

`CC(=O)N1CC(F)C(NC(=O)c2nsnc2N2CC(Oc3ccc(F)c(F)c3)C2)C1` (single isomer, unassigned) [Example 14a]: the EC50 on human GPR52 is 1170 nM.

On to `CC(=O)N1CCC(NC(=O)c2nsnc2N2CC(Oc3ccc(F)c(F)c3)C2)C1` (stereo not shown) [Example 16a], for which, in the series on human hepatocytes, the “Human HepStab” value is given as <4.1 % QH. The EC50 on human GPR52 was 11 nM. Also, the “Hu PPB” value in the series with human plasma proteins turned out to be 86.2 % bound. Moreover, the IC50 against hERG channel is > 10000 nM.

In the case of `CC(=O)N1C[C@@H](NC(=O)c2nccnc2N2CC(Oc3cc(F)cc(F)c3)C2)C(F)(F)C1` [Example 10b], at human GPR52, the EC50 stood at 1330 nM.

Turning to `CC(=O)N1CC[C@H](NC(=O)c2nsnc2N2CC(Oc3cc(F)cc(F)c3)C2)C1` [Example 15b], the EC50 on human GPR52 came out at 168 nM.

For `O=C(NC1CNCC1(F)F)c1nccnc1N1CC(Oc2cc(F)c(F)c(F)c2)C1` (racemic) [Intermediate H-3], the “Human HepStab” value in the series on human hepatocytes was 27.7 % QH. In addition, the EC50 on human GPR52 was 378 nM. Also, the “Hu PPB” value in the series on human plasma proteins was 88.2 % bound.

For the compound `CC(=O)N1CCC(NC(=O)c2nsnc2N2CC(Oc3ccc(F)c(F)c3)C2)C1` (single isomer, unassigned) [Example 16b], the EC50 on human GPR52 was found to be 210 nM. For the same compound, at hERG channel, the IC50 was > 10000 nM.

With `CS(=O)(=O)N1CC(NC(=O)c2nccnc2N2CC(Oc3cc(F)c(F)c(F)c3)C2)C(F)(F)C1` (racemic) [Example 9], the “Human HepStab” value in the series on human hepatocytes is given as 5.8 % QH. Besides, at human GPR52, the EC50 came to 19 nM. For the same compound, the “Hu PPB” value with human plasma proteins came to 93.4 % bound. Besides, on hERG channel, the IC50 was > 10000 nM.

Consider `[2H]C([2H])([2H])C(=O)N1CC(NC(=O)c2nccnc2N2CC(Oc3ccc(F)c(F)c3)C2)C(F)(F)C1` (racemic) [Example 4], for which the “Human HepStab” value in the series on human hepatocytes is 8.5 % QH. Also, the EC50 on human GPR52 came out at 18 nM. Besides, in the series on human plasma proteins, the “Hu PPB” value stood at 79.2 % bound. At hERG channel, the concentration for half-maximal inhibition (IC50) was > 10000 nM.

Take `CC(=O)N1CC(F)C(NC(=O)c2nsnc2N2CC(Oc3ccc(F)c(F)c3)C2)C1` (single isomer, unassigned) [Example 14b]: at human GPR52, the EC50 was 11 nM. Also, the “Hu PPB” value with human plasma proteins worked out at 89.7 % bound. Also, at hERG channel, the IC50 is > 10000 nM.

On to `CCC(=O)N1CC(NC(=O)c2nccnc2N2CC(Oc3ccc(F)c(F)c3)C2)C(F)(F)C1` (stereo not shown) [Example 2], for which the “Human HepStab” value in the series on human hepatocytes is 21.3 % QH. Moreover, at human GPR52, the EC50 was found to be 24 nM. Also, the “Hu PPB” value with human plasma proteins is listed as 89.9 % bound. Besides, the IC50 against hERG channel came out at 6600 nM.

As to `CC(=O)N1CC2(NC(=O)c3nsnc3N3CC(Oc4cc(F)c(F)c(F)c4)C3)CC1C2` [Example 12], the “Human HepStab” value with human hepatocytes is on record as 5.0 % QH. For the same compound, the concentration giving a half-maximal response (EC50) at human GPR52 worked out at 24 nM. For the same compound, the “Hu PPB” value in the series on human plasma proteins is 88.5 % bound. Further, the IC50 against hERG channel was > 10000 nM.
